These results are taken from ChEMBL document CHEMBL1201862, “PubChem BioAssay data set” (2004).

Among the test systems are MOLT-4; MCF7; SW-620; K562; A498; OVCAR-4; NCI-H226; SK-MEL-5; SR; TK-10; CCRF-CEM; A549; HT-29; MDA-MB-231; SF-295; SN12C; BT-549; DU-145; EKVX; SF-539.
Common to all, as to assay: NCI anticancer screen, dose series, 48 h

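Briefly, cells in 96-well plates were exposed to five compound concentrations for 48 h, and endpoints were estimated by linear interpolation. GI50 marks 50% less growth.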 Active and inactive are the calls of the source. Rule as the data show it: active = GI50 up to about 1.1 µM and inactive = higher.

Regarding `COc1c(O)c2ccccc2c2cc(O)ccc12`, the GI50 was 8.61 µM (inactive) in the assay on MOLT-4; 2.39 µM (inactive) with MCF7; 3.18 µM (inactive) in the assay with SW-620; 2.72 µM (inactive) with K562; 8.45 µM (inactive) with A498; 6.56 µM (inactive) in the assay on OVCAR-4. In addition, the GI50 with NCI-H226 was 13.6 µM (inactive); in the assay on SK-MEL-5, 2.17 µM (inactive); with SR, 12.4 µM (inactive); with TK-10, 25.4 µM (inactive); in the assay with CCRF-CEM it was 6.24 µM (inactive); in the assay on A549, 8.65 µM (inactive). The GI50 in the assay on HT-29 is 21 µM (inactive); in the assay with MDA-MB-231 it was 3.91 µM (inactive); in the assay with SF-295, 10 µM (inactive); in the assay with SN12C, 5.2 µM (inactive); with BT-549 it was 2.43 µM (inactive); in the assay on DU-145, 8.22 µM (inactive). Moreover, the GI50 in the assay with EKVX was 18.1 µM (inactive); in the assay with SF-539 it was 3.69 µM (inactive).
Take `Cc1c2c(c(O)c3c(O)cccc13)C(=O)C1(O)C(=O)C(C(=O)NCNc3ccc(C(N)=O)cn3)=C(O)C(N(C)C)C1C2` (stereo not given): the GI50 in the assay on MOLT-4 is 2.74 µM (inactive); in the assay with MCF7, 9.27 µM (inactive); in the assay on SW-620 it was 3.52 µM (inactive); in the assay on K562, 2.4 µM (inactive); in the assay with A498, 2.51 µM (inactive); with OVCAR-4, 1.93 µM (inactive). The GI50 in the assay on NCI-H226 was 2.94 µM (inactive); in the assay with SK-MEL-5 it was 2.16 µM (inactive); with SR, 3.05 µM (inactive); in the assay with TK-10 it was 5.15 µM (inactive); with CCRF-CEM, 2.94 µM (inactive); in the assay on A549, 2.96 µM (inactive). The GI50 with HT-29 is 3.89 µM (inactive); in the assay on MDA-MB-231, 3.78 µM (inactive); in the assay with SF-295, 2.87 µM (inactive); in the assay with SN12C it was 4.78 µM (inactive); in the assay on BT-549, 3.48 µM (inactive); with DU-145, 4.39 µM (inactive). In addition, the GI50 with EKVX is 4.33 µM (inactive); in the assay on SF-539, 2.52 µM (inactive).
For `CN(C)c1ccc(C2=C([O-])c3cc(-[n+]4ccccc4)ccc3C2=O)cc1`, the GI50 in the assay on MOLT-4, in the assay with MCF7, in the assay with SW-620, with K562, in the assay on A498 and in the assay on OVCAR-4 was > 100 µM (inactive) in each case. Also, the GI50 in the assay with NCI-H226, with SK-MEL-5, in the assay on SR, in the assay with TK-10, with CCRF-CEM and with A549 was > 100 µM (inactive) each time. For the same molecule, the GI50 in the assay on HT-29, in the assay with MDA-MB-231, in the assay with SF-295, in the assay with SN12C, with BT-549 and in the assay on DU-145 was > 100 µM (inactive) throughout. The GI50 in the assay with EKVX and with SF-539 was > 100 µM (inactive) in each case.
As for `COc1ccc(/N=C(C)/C(C)=N/c2ccc(OC)cc2)cc1`, the GI50 was 15.6 µM (inactive) in the assay on MOLT-4; > 100 µM (inactive) with MCF7; 63.1 µM (inactive) with SW-620; 64.9 µM (inactive) in the assay with K562; > 100 µM (inactive) in the assay on A498; 17.7 µM (inactive) in the assay with OVCAR-4. The GI50 is > 100 µM (inactive) in the assay with NCI-H226; 64 µM (inactive) in the assay with SK-MEL-5; 65.6 µM (inactive) in the assay on SR; > 100 µM (inactive) in the assay on TK-10; 39.1 µM (inactive) with CCRF-CEM; 37.9 µM (inactive) in the assay on A549. For the same molecule, the GI50 is 48.6 µM (inactive) in the assay with HT-29; > 100 µM (inactive) in the assay on MDA-MB-231; 17 µM (inactive) with SF-295; > 100 µM (inactive) in the assay with SN12C; 3.78 µM (inactive) in the assay with BT-549; 30.9 µM (inactive) in the assay on DU-145. Also, the GI50 in the assay on EKVX was > 100 µM (inactive); in the assay on SF-539, 30.8 µM (inactive).
`O=C(N/N=C/c1c(-c2ccccc2)no[n+]1[O-])N1CCOCC1`: the GI50 with MOLT-4 was 26.3 µM (inactive); in the assay on MCF7 it was > 100 µM (inactive); with SW-620 it was > 100 µM (inactive); in the assay with K562, > 100 µM (inactive); in the assay with A498, > 100 µM (inactive); in the assay with OVCAR-4, > 100 µM (inactive). Further, the GI50 was > 100 µM (inactive) in the assay on NCI-H226; > 100 µM (inactive) with SK-MEL-5; 0.264 µM (active) in the assay with SR; > 100 µM (inactive) in the assay with TK-10; > 100 µM (inactive) in the assay with CCRF-CEM; > 100 µM (inactive) in the assay on A549. Also, the GI50 with HT-29, in the assay on MDA-MB-231, with SF-295, with SN12C, with BT-549 and in the assay with DU-145 was > 100 µM (inactive) each time. Further, the GI50 in the assay with EKVX and with SF-539 was > 100 µM (inactive) each time.
For the molecule `O=c1cc(-c2ccccc2)[nH]c2ccc(N3CCOCC3)cc12`, the GI50 in the assay with MOLT-4 was 0.104 µM (active); with MCF7 it was 0.0327 µM (active); in the assay on SW-620 it was 0.0371 µM (active); with K562, < 0.0127 µM (active); in the assay with A498, 0.0413 µM (active); with OVCAR-4, 20.1 µM (inactive). Moreover, the GI50 in the assay with NCI-H226 was 0.0319 µM (active); in the assay on SK-MEL-5, < 0.0233 µM (active); in the assay on SR, < 0.017 µM (active); with TK-10, 55 µM (inactive); with CCRF-CEM it was 0.0144 µM (active); with A549, 0.0773 µM (active). For the same molecule, the GI50 is 0.0211 µM (active) in the assay with HT-29; 0.0618 µM (active) in the assay with MDA-MB-231; 0.0236 µM (active) in the assay with SF-295; 0.0467 µM (active) in the assay with SN12C; 23.8 µM (inactive) in the assay with BT-549; 0.038 µM (active) in the assay with DU-145. The GI50 in the assay on EKVX is 53 µM (inactive); in the assay with SF-539 it was < 0.0149 µM (active).
In the case of `Cn1c2ccccc2c(=O)c2c(O)cc3c(c21)C=CC1(CCCC1)O3`, the GI50 in the assay with MOLT-4 was > 100 µM (inactive); in the assay with MCF7 it was > 100 µM (inactive); in the assay with SW-620, > 100 µM (inactive); with K562, 3.51 µM (inactive); with A498, > 100 µM (inactive); in the assay with OVCAR-4, 41.7 µM (inactive). Further, the GI50 in the assay with NCI-H226 was > 100 µM (inactive); with SK-MEL-5, > 100 µM (inactive); with SR it was 37.3 µM (inactive); in the assay on TK-10, > 100 µM (inactive); in the assay on CCRF-CEM, > 100 µM (inactive); with A549 it was > 100 µM (inactive). Further, the GI50 was 2.67 µM (inactive) in the assay with HT-29; > 100 µM (inactive) in the assay with MDA-MB-231; 19 µM (inactive) in the assay with SF-295; > 100 µM (inactive) with SN12C; > 100 µM (inactive) in the assay on BT-549; > 100 µM (inactive) in the assay on DU-145. Moreover, the GI50 is 20.8 µM (inactive) with EKVX and 50.5 µM (inactive) in the assay on SF-539.
Take `COc1cc2c(c(OC)c1OC)C(=O)c1c(O)cc(C)c(OC)c1C2=O`: the GI50 was > 100 µM (inactive) in the assay with MOLT-4; > 100 µM (inactive) with MCF7; > 100 µM (inactive) with SW-620; > 10 µM (inactive) with K562; > 100 µM (inactive) in the assay with A498; > 100 µM (inactive) in the assay with OVCAR-4. In addition, the GI50 in the assay on NCI-H226 was > 100 µM (inactive); in the assay on SK-MEL-5, 39.4 µM (inactive); with SR it was > 100 µM (inactive); with TK-10, 27.2 µM (inactive); in the assay with CCRF-CEM it was > 10 µM (inactive); with A549, 77.3 µM (inactive). Besides, the GI50 with HT-29 is > 100 µM (inactive); in the assay with MDA-MB-231, 55 µM (inactive); in the assay on SF-295, 82.6 µM (inactive); in the assay with SN12C it was > 100 µM (inactive); in the assay with BT-549, > 100 µM (inactive); in the assay on DU-145, > 100 µM (inactive). In addition, the GI50 with EKVX was 65 µM (inactive); in the assay on SF-539, 75.5 µM (inactive).
Regarding `CSC(=S)Nc1cc(C)cc(C)n1`, the GI50 with MOLT-4 was > 31.6 µM (inactive); in the assay on MCF7, > 31.6 µM (inactive); with SW-620, > 31.6 µM (inactive); in the assay with K562 it was > 31.6 µM (inactive); in the assay on A498 it was > 100 µM (inactive); with OVCAR-4 it was > 31.6 µM (inactive). The GI50 in the assay with NCI-H226 is > 31.6 µM (inactive); in the assay on SK-MEL-5, > 66.4 µM (inactive); in the assay on SR, > 10 µM (inactive); in the assay on TK-10 it was > 31.6 µM (inactive); in the assay with CCRF-CEM, > 31.6 µM (inactive); in the assay with A549, > 31.6 µM (inactive). Further, the GI50 was > 31.6 µM (inactive) in the assay on HT-29; > 100 µM (inactive) with MDA-MB-231; > 31.6 µM (inactive) with SF-295; > 31.6 µM (inactive) in the assay on SN12C; > 100 µM (inactive) in the assay with BT-549; > 31.6 µM (inactive) with DU-145. Besides, the GI50 was > 31.6 µM (inactive) with EKVX and > 100 µM (inactive) in the assay on SF-539.
`Cc1cc(=O)n2c3c(c4c(cc13)c(CN(C)C)cc(=O)n4C)OC2`: the GI50 in the assay with MOLT-4 is 7.48 µM (inactive); in the assay on MCF7 it was 6.47 µM (inactive); in the assay on SW-620, 9.98 µM (inactive); with K562, 29.8 µM (inactive); in the assay on A498 it was 38.2 µM (inactive); in the assay with OVCAR-4, 9.27 µM (inactive). The GI50 is 9.04 µM (inactive) in the assay on NCI-H226; 12.2 µM (inactive) in the assay with SK-MEL-5; > 25.6 µM (inactive) in the assay with SR; 19.6 µM (inactive) in the assay with TK-10; > 24.8 µM (inactive) in the assay with CCRF-CEM; 10 µM (inactive) in the assay with A549. In addition, the GI50 was 8.13 µM (inactive) in the assay with HT-29; 33.3 µM (inactive) in the assay on MDA-MB-231; 16.9 µM (inactive) with SF-295; 20.3 µM (inactive) in the assay on SN12C; 22 µM (inactive) in the assay on BT-549; 20 µM (inactive) in the assay with DU-145. The GI50 was 20.6 µM (inactive) with EKVX and 7.18 µM (inactive) in the assay on SF-539.
